[ ]: non-standard residue; d: D form. Aib = CC(C)(N)C(=O)O
Assays:
[1] = test system: Balb/c mice; experiment: Imiquimod-induced psoriasis in mice; assay type: in vivo; settings: i.v.
Experimental: Psoriasis in Balb/c mice is induced by daily application of topical Imiquimod for 8 days. Animal are treated with the test items (topical or systemically). On day 9 the skin phenotype is characterized using a clinical score system (0=normal mouse skin; 1=mild reddening; 2=erythema; 3=erythema, swelling; 4=erythema, swelling, scaling; 5=erythema, swelling, scaling, (bloody) lesions). Skin is analyzed histologically. Lymph nodes are analyzed by flow cytometry and RT-qPCR. mRNA expression in lesional skin is analyzed by RT-qPCR. Cytokine concentrations in the serum are assessed using the Luminex technology.

[2] = test system: primary murine T cells; experiment: Gene expression of pro-inflammatory cytokines (RT-qPCR) in primary murine T cells; assay type: cell-based, C57BL/6 mice; settings: RT-qPCR
From the text: Cells were activated with PMA/Ionomycin and treated with PBS, α-MSH, K(D)PT and Examples 3, 8 and 9, respectively, at a concentration of 10^−9 M. Values are normalized to β-actin and are shown relative to the gene expression in PBS-stimulated cells.
Primary T-cells were isolated from peripheral blood from healthy volunteers and from secondary lymphatic organs from naïve C57BL/6 mice, respectively. The cells were stimulated with phorbol-12-myristate-13-acetate (PMA)/Ionomycin and interferon-gamma (IFN-γ), respectively, for 48 h to activate the cells. The activated cells release pro-inflammatory cytokines. In parallel a human (HaCaT) keratinocyte cell line was activated with PMA/Ionomycin and IFN-γ, respectively, too. […] At the same time release of anti-inflammatory IL-10 was inhibited. Two days after addition of PMA/Ionomycin and IFN-γ, respectively, the induction of IL-1 secretion was determined in the supernatant for proving that the cells are activated. […] The anti-inflammatory properties of the tripeptides were determined 48 h and 72 h following stimulation. A 13-plex-system based FACS analysis was used for showing the reduced secretion of pro-inflammatory cytokines in the supernatant. Data for IL-1, IL-2, IL-6, IL-12p70 IL-17, IFN-γ and TNF-α are considered to be most relevant. Thus, analysis of the anti-inflammatory properties of the tripeptides is preferably based on the results obtained for these analytes. […] Using this method the gene expression of pro-inflammatory markers like IL-6, IL-17, IFN-γ and TNF-α was determined.
In a third experiment murine and human T cells and HaCaT cells were stimulated with PMA/Ionomycin and treated with Examples 14, 15, 16 and 17 at 10^−7 M, 10^−9 M and 10^−11 M. Cytokine concentrations (IFN-γ, IL-17 and IL-10 for T cells and IFN-γ for HaCat) were assessed in the supernatants using the Luminex technology. Expression of genes coding for Il-1β, IL-6 and TNF-α was determined. […] Moreover, concentrations of pro-inflammatory cytokines IFN-γ and IL-17 was reduced in the supernatants whereas the concentration of anti-inflammatory cytokine IL-10 was increased.

[3] = test system: C57BL/6 mice; experiment: DSS-induced colitis in mice; assay type: in vivo; settings: i.p.
Experimental: Colitis is induced by treatment of C57BL/6 mice with 2.5% dextran sulfate (DSS) in the drinking water for 7 days. Mice are treated with the test item. Weight is monitored daily. At day 8 mice are scarified. A haemocult test is performed. The size of the colon is measured. Colitis is determined using a scoring system in H&E stains. mRNA expression in colon samples is analyzed by RT-qPCR.

H-Phe-Pro-[Aib]-OH [Example 13]
concentrations of TNF-α and IL-17 in the serum [1]: reduced | mRNA expression of IL-17, IFN-γ, IL-23, IL-36 and IL-22 in lesional skin [1]: reduced | size of the rete ridges ([1]; compared to vehicle control): decreased | clinical score ([1]; day 9): reduced | mRNA expression of IL-6, IL-17, IFN-γ and TNF-α [2]: reduced expression | colon size [3]: partly normalized | disease in histology [3]: amelioration | mRNA expression of LY-6G, MPO, IFN-γ, IL-6 and TNF-α (colon) ([3]; compared to vehicle control): reduced | weight loss ([3]; compared to vehicle control): decreased

From patent US10954269B2, “Anti-inflammatory tripeptides” (Dr. August Wolff Gmbh & Co. KG Arzneimittel, priority 2013, dated 2021)
